What all share (assay type): in vivo
Assay [1] is described as follows: Flavourist tasting, enhancement effect on NaCl (solution D versus A, Example 3). The settings on record: 10 ppm in 0.5% NaCl; marked between 0 and 10, greater value = greater effect; salt reference solution A = 0.0. As for the experimental part:
(§1) Six solutions were prepared: • A a solution of 0.5% NaCl • B a solution of 0.5% NaCl and 0.03% MSG • C a solution of 0.5% NaCl and 0.015% ribonucleotides • D a solution of 0.5% NaCl and 10 ppm Example 1 compound • E a solution of 0.5% NaCl and 0.03% MSG and 10 ppm Example 1 compound • F a solution of 0.5% NaCl and 0.015% ribonucleotides and 10 ppm Example 1 compound
(§2) The samples were tasted by a group of 5-10 flavourists aged between 30 and 60. The taste of solution D is compared with that of A to determine the enhancement effect of Example 1 compound on NaCl. Similarly, solution E is compared with solution B and solution F with solution C to determine the enhancement effect of Example 1 compound on MSG and ribonucleotides respectively. The effect is marked between 0 and 10, the greater the value the greater the effect.

Assay [2] in a line: Flavourist tasting of a 0.5% NaCl / 0.03% MSG solution, umami intensity versus reference solution A (Example 2). Conditions: 10 ppm compound in 0.5% NaCl and 0.03% MSG; average rating of 4 flavourists versus solution A; scale -3 (much lower than base) to 3 (much higher), 0 = same as base. As for the experimental part: (§3) Two solutions were prepared: • A a solution of 0.5% NaCl and 0.03% MSG • B a solution of 0.5% NaCl and 0.03% MSG and 10 ppm Example 1 compound
(§4) The samples were tasted by a small group of flavourists (2 male, 2 female, aged between 30 and 60). The intensity of the umami and salt taste of solution B was compared with that of the reference (solution A) and rated according to the following intensity scale:
(§5) The results (average of ratings given by the flavourists) were: […]

Assay [3] can be described thus: Flavourist tasting, enhancement effect on ribonucleotides (solution F versus C, Example 3). The settings on record: 10 ppm in 0.5% NaCl and 0.015% ribonucleotides; marked between 0 and 10; ribo reference solution C = 5.0. As for the experimental part:
as §1, §2

The nature of assay [4]: Flavourist tasting of a 0.5% NaCl / 0.03% MSG solution, salt intensity versus reference solution A (Example 2). The settings on record: 10 ppm compound in 0.5% NaCl and 0.03% MSG; average rating of 4 flavourists versus solution A; scale -3 (much lower than base) to 3 (much higher), 0 = same as base. The protocol:
as §3, §4, §5

Assay [5] is described as follows: Flavourist tasting, enhancement effect on MSG (solution E versus B, Example 3). Conditions: 10 ppm in 0.5% NaCl and 0.03% MSG; marked between 0 and 10; MSG reference solution B = 5.0. The protocol:
as §1, §2

The nature of assay [6]: Bread comparison by a panel of professional tasters (Example 5). The settings on record: bread B: 20 g NaCl and 0.025 g compound in the flour mixture; bread A: 20 g NaCl only. The protocol:
A bread flour mixture was prepared by mixing 1250 g of wheat flour, 250 g of white wheat flour and 60 g of yeast. Two salt mixtures were added to separate flour mixtures: • A 20 g of NaCl • B 20 g of NaCl and 0.025 g (+−)-1-aminocyclopentane-trans-1,3-dicarboxylic acid
Doughs were prepared by mixing the ingredients and adding 900 g of water. The doughs were allowed to rise at room temperature for 2 hours and baked at 220° C. for 45 minutes.
A panel of professional tasters compared the breads. The bread B was preferred over reference bread A.

A short description of assay [7]: Bouillon tasting by flavourists versus reference bouillon (Example 4). The settings on record: 250 ppm in bouillon (32 g mix in 1 L boiling water); 4 flavourists. The protocol:
A bouillon mix was prepared from 155.0 g of sodium chloride, 157.0 g of dextrose monohydrate (ex Tapioca), 0.2 g of celery oleoresin, 0.3 g of oleoresin turmeric Vegex, 0.2 g of oleoresin coriander seed, 444.8 g maltodextrin 5-8 DE, 40.0 g vegetable oil soya bean refined, 30.0 g yeast standard light, 4.0 g of onion powder, 4.0 g of garlic powder, 0.5 g of white pepper and 164.0 g of potato starch.
32 g of the well-mixed ingredients was added to 1 L of boiling water and stirred until completely dissolved.
A small group of flavourists (2 male, 2 female) compared the taste of the reference bouillon with that of a batch of the same bouillon containing 250 ppm of 2-(amino(carboxy)methyl)-cyclopropanecarboxylic acid. The flavourists agreed that the test bouillon was more umami and saltier than the reference bouillon.

With `N[C@]1(C(=O)O)CC[C@H](C(=O)O)C1` (racemic) [(±)-1-Aminocyclopentane-cis-1,3-dicarboxylic acid], the “NaCl Taste” value in assay [1] came to 1.3. Also, in assay [2], the “Intensity Taste Umami” value was determined as 0.00. Besides, in assay [3], the Ribo taste is on record as 5.2. The “Intensity Taste Salt (NaCl)” value in assay [4] turned out to be 1.00. Besides, the MSG taste in assay [5] amounted to 6.7.
Regarding `N[C@@]1(C(=O)O)CC[C@H](C(=O)O)C1` (racemic) [(±)-1-Aminocyclopentane-trans-1,3-dicarboxylic acid], in assay [1], the “NaCl Taste” value was found to be 2.0. Further, the “Preference of bread B over reference bread A” value in assay [6] is recorded as “preferred”. The “Intensity Taste Umami” value in assay [2] is given as 0.00. Also, the Ribo taste in assay [3] is given as 6.3. Moreover, the “Intensity Taste Salt (NaCl)” value in assay [4] was determined as 1.00. Besides, the MSG taste in assay [5] is 5.3.
Take `NC(C(=O)O)C1CC1C(=O)O` (centres unmarked) [2-(amino(carboxy)methyl)cyclopropanecarboxylic acid]: in assay [1], the “NaCl Taste” value is reported as 1.2. Besides, in assay [7], the “Salt taste of test bouillon versus reference bouillon” value is “saltier” and the “Umami taste of test bouillon versus reference bouillon” value is on record as “more umami”. Moreover, the “Intensity Taste Umami” value in assay [2] is listed as 1.00. In assay [3], the Ribo taste is on record as 5.7. In assay [4], the “Intensity Taste Salt (NaCl)” value was 0.00. The MSG taste in assay [5] was 6.3.
As for `CCOC(=O)C(N)C1CC1C(=O)OC.Cl` (centres unmarked) [methyl 2-(1-amino-2-ethoxy-2-oxoethyl)cyclopropanecarboxylate, HCl], the “NaCl Taste” value in assay [1] stood at 0.0. Moreover, the “Intensity Taste Umami” value in assay [2] came out at 1.00. Also, the Ribo taste in assay [3] came out at 5.4. In addition, in assay [4], the “Intensity Taste Salt (NaCl)” value was 0.00. Further, the MSG taste in assay [5] is listed as 5.5.

The record behind these values is patent US20140272095A1, “GLUTAMIC ACID DERIVATIVES” (Givaudan S.A., priority 2011, published 2014).
